Common to all, as to test: DTP human tumour cell line panel, 48 h
The subject of assay [1] is SK-MEL-5 melanoma.
Assay [2] concerns SK-MEL-28 melanoma.
Assay [3] deals with MDA-MB-435.
Assay [4] has as its system SF-295 CNS.
The test system of assay [5] is SF-539 CNS.
Assay [6] concerns HCT-15 colon.
In assay [7] the test system is A549 NSCLC.
The test system of assay [8] is SF-268 CNS.
Assay [9] relates to TK-10 renal.
Assay [10] concerns KM12 colon.

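Cells were grown in 96-well plates and exposed to each compound for 48 hours at five concentrations; endpoints were interpolated linearly between bracketing concentrations, or set to the highest concentration if not reached. Abbreviation: GI50, concentration required for 50% inhibition of growth. TGI: total growth inhibition.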

In the case of `O=P(O)(O)OCC1OC(n2cnc3c(NCc4ccccc4)ncnc32)C(O)C1O` (stereo not given), the GI50 (in general, the concentration giving 50% growth inhibition) in assay [1] was 17 µM; in [2], 21.2 µM; in assay [3], 3.23 µM; in [4] it was 3.09 µM; in assay [5], 1.55 µM; in [6], 1.19 µM. The GI50 was 7.21 µM in assay [7], 2.03 µM in assay [8], 2.15 µM in [9] and 12.7 µM in assay [10]. Moreover, the TGI (usually the concentration giving total growth inhibition) is > 100 µM in assay [1]; > 100 µM in assay [2]; > 100 µM in [3]; 21.8 µM in assay [4]; 4.73 µM in assay [5]; 16 µM in [6]. The TGI in assay [7] is > 88.4 µM; in assay [8], > 100 µM; in [9], 30.2 µM; in assay [10], > 100 µM.
In the case of `CC1SC(c2ccc(Cl)cc2Cl)N(NC(=O)C(O)c2ccccc2)C1=O` (stereo not given), the GI50 in [1] is 58.6 µM; in assay [2] it was 76.1 µM; in assay [3] it was 74.7 µM; in assay [4], 23.7 µM; in [5] it was > 100 µM; in [6], 61.3 µM. For the same molecule, the GI50 is 33.9 µM in assay [7], 81.3 µM in assay [8], 61.2 µM in [9] and 51.2 µM in assay [10]. Also, the total growth inhibition concentration (TGI) in [1], in assay [2], in assay [3], in assay [4], in assay [5] and in [6] was > 100 µM in each case. Also, the TGI in [7], in [8], in assay [9] and in assay [10] was > 100 µM each time.
Turning to `C[C@@H]1CC[C@@]2(NC1)O[C@H]1C[C@H]3[C@@H]4CC[C@H]5C[C@@H](O)CC[C@]5(C)[C@H]4CC[C@]3(C)[C@H]1[C@@H]2C`, the concentration for total growth inhibition (TGI) in [1] was > 100 µM; in assay [2] it was > 100 µM; in assay [3], > 100 µM; in assay [4], > 100 µM; in assay [5], 77.6 µM; in assay [6], > 100 µM. For the same molecule, the concentration for total growth inhibition (TGI) in assay [7] is > 100 µM; in assay [8], > 100 µM; in [9] it was > 100 µM; in [10], 66.8 µM.
For `CN(C)CCCNc1nc2ccccc2c2[nH]c3ccccc3c12`, the GI50 in assay [1] was 3.02 µM; in assay [2] it was 2.04 µM; in assay [3], 1.28 µM; in assay [4], 0.972 µM; in assay [5], 0.654 µM; in assay [6] it was 0.266 µM. Also, the concentration for 50% growth inhibition (GI50) in assay [7] is 0.402 µM; in [8], 1.39 µM; in assay [9] it was 1.45 µM; in assay [10], 0.721 µM. The concentration for total growth inhibition (TGI) in [1] amounted to 8.33 µM; in assay [2], 5.84 µM; in [3] it was 3.89 µM; in assay [4], 3.11 µM; in [5] it was 1.9 µM; in [6], 4.31 µM. Also, the TGI in [7] turned out to be 8.18 µM; in assay [8] it was 4.1 µM; in assay [9], 4.04 µM; in [10], 2.28 µM.
For the molecule `O=C([O-])CC(=O)[O-].[NH-][C@@H]1CCCC[C@H]1[NH-].[Pt+4]`, the GI50 is 16.9 µM in assay [1]; 35.8 µM in assay [2]; 15.5 µM in assay [3]; 39.4 µM in assay [4]; 46.8 µM in assay [5]; 9.61 µM in assay [6]. Further, the GI50 in [7] is 11.1 µM; in assay [8] it was 59.1 µM; in [9] it was > 100 µM; in assay [10], 85 µM. For the same molecule, the TGI in assay [1], in assay [2], in assay [3], in assay [4], in assay [5] and in assay [6] was > 100 µM each time. The TGI in [7], in assay [8], in assay [9] and in assay [10] was > 100 µM throughout.

The record behind these values is PubChem BioAssay (NCI).
